From the supplement of paper PMC11451515

Tested on: NOMO1
Assay: cell viability relative to DMSO control; higher = less cytotoxic
Settings: 48 h
Outline: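 Viability values are per-plate percentages of DMSO wells, with background from cell-free wells. Library compounds in DMSO were pin-dosed, in an 11-point threefold series from 47 μM to 0.79 nM, onto NOMO1 or SEM (500 cells/well) or P12-Ichikawa (1000 cells/well) leukemia cells in 1536-well plates (5 μl). Those cells had been adapted for at least four passages in each medium, and CellTiter-Glo One luminescence was read after 48 h at 37°C.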

[1] = RPMI 5 mM glucose + 10% FBS, 0.000781 µM
[2] = RPMI 5 mM glucose + 10% FBS, 0.00234 µM
[3] = RPMI 5 mM glucose + 10% FBS, 0.00702 µM
[4] = RPMI 5 mM glucose + 10% FBS, 0.0211 µM
[5] = RPMI 5 mM glucose + 10% FBS, 0.0632 µM
[6] = RPMI 5 mM glucose + 10% FBS, 0.19 µM
[7] = RPMI 5 mM glucose + 10% FBS, 0.569 µM
[8] = RPMI 5 mM glucose + 10% FBS, 1.71 µM
[9] = RPMI 5 mM glucose + 10% FBS, 5.12 µM
[10] = RPMI 5 mM glucose + 10% FBS, 15.4 µM
[11] = RPMI 5 mM glucose + 10% FBS, 46.1 µM
[12] = RPMI 5 mM glucose + 10% dialyzed FBS, 0.000781 µM
[13] = RPMI 5 mM glucose + 10% dialyzed FBS, 0.00234 µM
[14] = RPMI 5 mM glucose + 10% dialyzed FBS, 0.00702 µM
[15] = RPMI 5 mM glucose + 10% dialyzed FBS, 0.0211 µM
[16] = RPMI 5 mM glucose + 10% dialyzed FBS, 0.0632 µM
[17] = RPMI 5 mM glucose + 10% dialyzed FBS, 0.19 µM
[18] = RPMI 5 mM glucose + 10% dialyzed FBS, 0.569 µM
[19] = RPMI 5 mM glucose + 10% dialyzed FBS, 1.71 µM
[20] = RPMI 5 mM glucose + 10% dialyzed FBS, 5.12 µM
[21] = RPMI 5 mM glucose + 10% dialyzed FBS, 15.4 µM
[22] = RPMI 5 mM glucose + 10% dialyzed FBS, 46.1 µM

Compound	cell viability [1]	cell viability [2]	cell viability [3]	cell viability [4]	cell viability [5]	cell viability [6]	cell viability [7]	cell viability [8]	cell viability [9]	cell viability [10]	cell viability [11]	cell viability [12]	cell viability [13]	cell viability [14]	cell viability [15]	cell viability [16]	cell viability [17]	cell viability [18]	cell viability [19]	cell viability [20]	cell viability [21]	cell viability [22]
CN\1C(=O)/C(=C(\N=C1N2CCCC[S+]2([O-])=O)C(=O)NCC3=CC=C(F)C=C3)O	113%	105%	116%	124%	116%	107%	112%	123%	115%	113%	106%	123%	116%	119%	123%	111%	119%	113%	107%	118%	105%	99.2%
NC[C@H]1CC[C@H](C(=O)O)CC1	112%	133%	105%	109%	119%	128%	110%	110%	116%	121%	120%											
CN(c1ncccc1CNc1nc(Nc2ccc3c(c2)CC(=O)N3)ncc1C(F)(F)F)[S+](C)(=O)[O-]	112%	113%	115%	105%	116%	116%	99.3%	103%	97.7%	93.9%	18.7%	104%	107%	116%	106%	117%	117%	124%	104%	114%	86.5%	20.6%
ClC1=C(N\C2=N\CCN2)C3=NSN=C3C=C1	108%	119%	120%	123%	112%	118%	119%	135%	117%	125%	144%	107%	127%	114%	132%	133%	128%	140%	143%	161%	153%	140%
